In patent US20110038931A1, “COMPOSITE PREPARATION” (HANALL BIOPHARMA CO., LTD., priority 2008, published 2011):

Columns and labels:
SD rats = experiment: Bleeding time measurement in SD rats; type: in vivo, Rats (male); details: 10 mg/kg p.o. once, light, 2 hours after administration
Method: (§1) Animal tests supporting the effects of the present invention were carried out as described in Table 8 below.

[1] = system: ADP-induced platelet aggregation; experiment: Measurement of ADP-induced platelet aggregation in SD rats (PRP, aggregometer); type: in vivo, Rats (male); details: single drug 10 mg/kg, light
Method: as §1

COC(=O)[C@H](c1ccccc1Cl)N1CCc2sccc2C1 [Clopidogrel, methyl (+)-(S)-α-(o-chlorophenyl)-6,7-dihydrothieno[3,2-c]pyridine-5(4H)-acetate]
Bleeding time (SD rats): 1177 ± 729 s
Platelet aggregation [1]: 77.1 ± 20.9%

CC(=O)Oc1ccccc1C(=O)O [Aspirin, acetylsalicylic acid]
Bleeding time (SD rats): 930 ± 296 s
Platelet aggregation [1]: 83.5 ± 16.7%
